Data set [1] is classed as in vivo. From the text:
In certain preferred embodiments, the opioid agonist is hydrocodone or oxycodone.

For data set [2] the following is noted: after oral doses; cited from earlier work.
The conditions of data set [3]: following oral administration; cited from earlier work.
Data set [4] concerns opioid receptors. Particulars: daily dosage of 50 mg; cited from earlier work.
For data set [5] the following is noted: cited from earlier work.
[6] abbreviates: in comparison to a 15 mg dose of hydrocodone.

Structures can show the parent of a compound that is named as a salt. Where two headings read alike, the source gives them in different places.

As for `CCC(=O)C(CC(C)N(C)C)(c1ccccc1)c1ccccc1` (stereo not drawn) [Methadone], the “Equianalgesic dose, Calculated Dose” value in data set [1] (setting [6]) was 9.0 mg.
Consider `C[C@H]1[C@H]2Cc3ccc(O)cc3[C@]1(C)CCN2CC1CC1` [cyclazocine], for which the duration of action in data set [2] is approximately 24 h.
In the case of `O=C1CC[C@@]2(O)[C@H]3Cc4ccc(O)c5c4[C@@]2(CCN3CC2CC2)[C@H]1O5` [naltrexone], in data set [2], the duration of action is approximately 24 h. The oral bioavailability in data set [3] is 5-40%. Also, the “blockade of the actions of parenterally administered opioids” value in data set [4] is recorded as “adequate clinical blockade”.
For `O=C1CC[C@@]2(O)[C@H]3Cc4ccc(O)c5c4[C@@]2(CCN3CC2CC2)[C@H]1O5` [hydrochloride salt of naltrexone], the solubility in water result in data set [5] is “about 100 mg/cc”.
As to `COc1ccc2c3c1OC1C(=O)CC[C@H]4[C@@H](C2)N(C)CC[C@]314` (stereo partly drawn) [Hydrocodone, 4,5-epoxy-3-methoxy-17-methylmorphinan-6-one], the “Equianalgesic dose, Calculated Dose” value in data set [1] (setting [6]) is 15.0 mg.
Still for that read-out and setting: under `COc1ccc2c3c1O[C@H]1C(=O)CC[C@@]4(O)[C@@H](C2)N(C)CC[C@]314` [Oxycodone, 4,5-expoxy-14-hydroxy-3-methoxy-17-methylmorphinan-6-one] stands 13.5 mg; under `CN1CC[C@]23CCCC[C@H]2[C@H]1Cc1ccc(O)cc13` [Levorphanol], 1.8 mg.
In the case of `CN1CC[C@]23c4c5ccc(O)c4O[C@H]2[C@@H](O)C=C[C@H]3[C@H]1C5` [Morphine], the “Equianalgesic dose, Calculated Dose” value in data set [1] (in vivo) is given as 27.0 mg.
For `COc1ccc2c3c1O[C@H]1[C@@H](O)C=C[C@H]4[C@@H](C2)N(C)CC[C@@]341` [Codeine], the “Equianalgesic dose, Calculated Dose” value in data set [1] (setting [6]) is 90.0 mg.
For Meperidine, the “Equianalgesic dose, Calculated Dose” value in data set [1] (setting [6]) is reported as 135.0 mg.

Source of the values: US8518443B2, “Opioid agonist formulations with releasable and sequestered antagonist” (Purdue Pharma, L.P., priority 2001, dated 2013).
